*1 amine or outer side, *2 acyl side, *3 side chain or, on linkers, in order; H or OH if unused. Where a SMILES comes first, the peptide text is derived from it. Bridges are numbered along the chain shown (N, C = ends). [ ]: non-standard residue; d: D form. The star is where a group is joined. Trp(1-CH2CO) = O=C([C@H](Cc1cn(CC(=O)[*:3])c2ccccc12)N[*:1])[*:2]; Dodecyloxycarbonyl = CCCCCCCCCCCCOC(=O)*; X4 = CCc1cccc(CC)c1-c1nc(*)c2ccccc2n1; Fmoc = O=C(OCC1c2ccccc2-c2ccccc21)*; Oleoyl = CCCCCCCC/C=C\CCCCCCCC(=O)*; X2 = COc1ccc2nc(-c3ccccc3)nc(*)c2c1; Hyp = O=C(O)[C@@H]1C[C@@H](O)CN1; X1 = COC(=O)c1ccc2cnc(*)nc2c1; NMeNle = CCCC[C@H](NC)C(=O)O; X6 = CCCCCCCCCCCCCCCCOC(=O)*; NMeA = CN[C@@H](C)C(=O)O; X3 = Brc1ccc2ncnc(*)c2c1; Dab = NCC[C@H](N)C(=O)O; Dap = NC[C@H](N)C(=O)O; X5 = CC(C)(C)SC(=O)*

The results in this text go back to US20230365628A1, “MACROCYCLIC IMMUNOMODULATORS” (Bristol-Myers Squibb Company, priority 2020, published 2023).

For the test, the target named is T1, PD-1/PD-L1 (Homo sapiens, UniProt Q9NZQ7).
T1 construct: TVMV protease site linker (C); made in house; host or cells: HEK293T cells
T1 sequence (Q9NZQ7 18-239): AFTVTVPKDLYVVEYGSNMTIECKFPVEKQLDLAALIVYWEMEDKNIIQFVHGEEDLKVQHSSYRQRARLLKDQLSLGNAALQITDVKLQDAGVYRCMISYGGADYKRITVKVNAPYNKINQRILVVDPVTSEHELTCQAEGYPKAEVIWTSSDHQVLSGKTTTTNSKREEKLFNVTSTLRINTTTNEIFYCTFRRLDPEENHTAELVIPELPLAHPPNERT
Kind of test: PD-1/PD-L1 Homogenous Time-Resolved Fluorescence (HTRF) binding assay. Conditions: PD-L1-His 10 nM, PD-1-Ig 20 nM; soluble extracellular domains. From the text:
Methods for Testing the Ability of Macrocyclic Peptides to Compete for the Binding of Pd-1 to Pd-L1 Using Homogenous Time-Resolved Fluorescence (Htrf) Binding Assays
The ability of the compounds of formula (I) to bind to PD-L1 was investigated using a PD-1/PD-L1 Homogenous Time-Resolved Fluorescence (HTRF) binding assay.
The interaction of PD-1 and PD-L1 can be assessed using soluble, purified preparations of the extracellular domains of the two proteins. The PD-1 and PD-L1 protein extracellular domains were expressed as fusion proteins with detection tags, for PD-1, the tag was the Fc portion of Immunoglobulin (PD-1-Ig) and for PD-L1 it was the 6 histidine motif (PD-L1-His). All binding studies were performed in an HTRF assay buffer consisting of dPBS supplemented with 0.1% […] bovine serum albumin and 0.05% (v/v) Tween-20. For the h/PD-L1-His binding assay, inhibitors were pre-incubated with PD-L1-His (10 nM final) for 15 m in 4 μl of assay buffer, followed by addition of PD-1-Ig (20 nM final) in 1 μl of assay buffer and further incubation for 15 m. HTRF detection was achieved using europium crypate-labeled anti-Ig (1 nM final) and allophycocyanin (APC) labeled anti-His (20 nM final). Antibodies were diluted in HTRF detection buffer and 5 μl was dispensed on top of the binding reaction. The reaction mixture was allowed to equilibrate for 30 minutes and the resulting signal (665 nm/620 nm ratio) was obtained using an EnVision fluorometer. Additional binding assays were established between the human proteins PD-1-Ig/PD-L2-His (20 & 5 nM, respectively) and CD80-His/PD-L1-Ig (100 & 10 nM, respectively).
Recombinant Proteins: Human PD-1 (25-167) with a C-terminal human Fc domain of immunoglobulin G (Ig) epitope tag [hPD-1(25-167)-3S-IG] and human PD-L1 (18-239) with a C-terminal His epitope tag [hPD-L1(18-239)-TVMV-His] were expressed in HEK293T cells and purified sequentially by Protein A affinity chromatography and size exclusion chromatography. Human PD-L2-His and CD80-His was obtained through commercial sources.
Table 1 lists the IC50 values for representative examples of this disclosure measured in the PD-1/PD-L1 Homogenous Time-Resolved Fluorescence (HTRF) binding assay.
In turn, `CCCC[C@H]1C(=O)N(C)[C@@H](CCCC)C(=O)N[C@@H](CC(C)C)C(=O)N[C@H](C(=O)NCC(N)=O)CSCC(=O)N[C@@H](Cc2ccc(O)cc2)C(=O)N(C)[C@@H](C)C(=O)N[C@@H](CC(N)=O)C(=O)N2CCC[C@H]2C(=O)N[C@@H](CNc2nc(-c3c(CC)cccc3CC)nc3ccccc23)C(=O)N[C@@H](CC(C)C)C(=O)N2C[C@H](O)C[C@H]2C(=O)N[C@@H](Cc2c[nH]c3ccccc23)C(=O)N[C@H]2CCNC(=O)Cn3cc(c4ccccc43)C[C@H](NC2=O)C(=O)N1C` [Example 1013] ({CH2CO}-Y[NMeA]NP[Dap](X4)L[Hyp]W[Dab][Trp(1-CH2CO)][NMeNle][NMeNle]LCG-NH2; lactam 9-10; thioether N-14) returned an IC50 of 41 nM.
Under `CCCC[C@H]1C(=O)N(C)[C@@H](CCCC)C(=O)N[C@@H](CC(C)C)C(=O)N[C@H](C(=O)NCC(N)=O)CSCC(=O)N[C@@H](Cc2ccc(O)cc2)C(=O)N(C)[C@@H](C)C(=O)N[C@@H](CC(N)=O)C(=O)N2CCC[C@H]2C(=O)N[C@@H](CNc2nc(-c3ccccc3)nc3ccc(OC)cc23)C(=O)N[C@@H](CC(C)C)C(=O)N2C[C@H](O)C[C@H]2C(=O)N[C@@H](Cc2c[nH]c3ccccc23)C(=O)N[C@H]2CCNC(=O)Cn3cc(c4ccccc43)C[C@H](NC2=O)C(=O)N1C` [Example 1014] ({CH2CO}-Y[NMeA]NP[Dap](X2)L[Hyp]W[Dab][Trp(1-CH2CO)][NMeNle][NMeNle]LCG-NH2; lactam 9-10; thioether N-14) stands 49 nM.
Under `CCCC[C@H]1C(=O)N(C)[C@@H](CCCC)C(=O)N[C@@H](CC(C)C)C(=O)N[C@H](C(=O)NCC(N)=O)CSCC(=O)N[C@@H](Cc2ccc(O)cc2)C(=O)N(C)[C@@H](C)C(=O)N[C@@H](CC(N)=O)C(=O)N2CCC[C@H]2C(=O)N[C@@H](CNc2ncnc3ccc(Br)cc23)C(=O)N[C@@H](CC(C)C)C(=O)N2C[C@H](O)C[C@H]2C(=O)N[C@@H](Cc2c[nH]c3ccccc23)C(=O)N[C@H]2CCNC(=O)Cn3cc(c4ccccc43)C[C@H](NC2=O)C(=O)N1C` [Example 1015] ({CH2CO}-Y[NMeA]NP[Dap](X3)L[Hyp]W[Dab][Trp(1-CH2CO)][NMeNle][NMeNle]LCG-NH2; lactam 9-10; thioether N-14) stands 97 nM; under `CCCCCCCCCCCCOC(=O)NC[C@@H]1NC(=O)[C@@H]2CCCN2C(=O)[C@H](CC(N)=O)NC(=O)[C@H](C)N(C)C(=O)[C@H](Cc2ccc(O)cc2)NC(=O)CSC[C@@H](C(=O)NCC(N)=O)NC(=O)[C@H](CC(C)C)NC(=O)[C@H](CCCC)N(C)C(=O)[C@H](CCCC)N(C)C(=O)[C@@H]2Cc3cn(c4ccccc34)CC(=O)NCC[C@H](NC(=O)[C@H](Cc3c[nH]c4ccccc34)NC(=O)[C@@H]3C[C@@H](O)CN3C(=O)[C@H](CC(C)C)NC1=O)C(=O)N2` [Example 1001] ({CH2CO}-Y[NMeA]NP[Dap](Dodecyloxycarbonyl)L[Hyp]W[Dab][Trp(1-CH2CO)][NMeNle][NMeNle]LCG-NH2; lactam 9-10; thioether N-14), 280 nM; under `CCCCCCCCCCCCCCCCOC(=O)NC[C@@H]1NC(=O)[C@@H]2CCCN2C(=O)[C@H](CC(N)=O)NC(=O)[C@H](C)N(C)C(=O)[C@H](Cc2ccc(O)cc2)NC(=O)CSC[C@@H](C(=O)NCC(N)=O)NC(=O)[C@H](CC(C)C)NC(=O)[C@H](CCCC)N(C)C(=O)[C@H](CCCC)N(C)C(=O)[C@@H]2Cc3cn(c4ccccc34)CC(=O)NCC[C@H](NC(=O)[C@H](Cc3c[nH]c4ccccc34)NC(=O)[C@@H]3C[C@@H](O)CN3C(=O)[C@H](CC(C)C)NC1=O)C(=O)N2` [Example 1002] ({CH2CO}-Y[NMeA]NP[Dap](X6)L[Hyp]W[Dab][Trp(1-CH2CO)][NMeNle][NMeNle]LCG-NH2; lactam 9-10; thioether N-14), 2200 nM.
Under `CCCC[C@H]1C(=O)N(C)[C@@H](CCCC)C(=O)N[C@@H](CC(C)C)C(=O)N[C@H](C(=O)NCC(N)=O)CSCC(=O)N[C@@H](Cc2ccc(O)cc2)C(=O)N(C)[C@@H](C)C(=O)N[C@@H](CC(N)=O)C(=O)N2CCC[C@H]2C(=O)N[C@@H](CNc2nc(Cl)nc3ccc(-c4ccccc4C)cc23)C(=O)N[C@@H](CC(C)C)C(=O)N2C[C@H](O)C[C@H]2C(=O)N[C@@H](Cc2c[nH]c3ccccc23)C(=O)N[C@H]2CCCC(=O)Cn3cc(c4ccccc43)C[C@H](NC2=O)C(=O)N1C` [Example 1007] stands 1200 nM.
`CCCC[C@H]1C(=O)N(C)[C@@H](CCCC)C(=O)N[C@@H](CC(C)C)C(=O)N[C@H](C(=O)NCC(N)=O)CSCC(=O)N[C@@H](Cc2ccc(O)cc2)C(=O)N(C)[C@@H](C)C(=O)N[C@@H](CC(N)=O)C(=O)N2CCC[C@H]2C(=O)N[C@@H](CNC(=O)SC(C)(C)C)C(=O)N[C@@H](CC(C)C)C(=O)N2C[C@H](O)C[C@H]2C(=O)N[C@@H](Cc2c[nH]c3ccccc23)C(=O)N[C@H]2CCNC(=O)Cn3cc(c4ccccc43)C[C@H](NC2=O)C(=O)N1C` [Example 1005] ({CH2CO}-Y[NMeA]NP[Dap](X5)L[Hyp]W[Dab][Trp(1-CH2CO)][NMeNle][NMeNle]LCG-NH2; lactam 9-10; thioether N-14): the IC50 worked out at 0.58 nM.
Under `CCCC[C@H]1C(=O)N(C)[C@@H](CCCC)C(=O)N[C@@H](CC(C)C)C(=O)N[C@H](C(=O)NCC(N)=O)CSCC(=O)N[C@@H](Cc2ccc(O)cc2)C(=O)N(C)[C@@H](C)C(=O)N[C@@H](CC(N)=O)C(=O)N2CCC[C@H]2C(=O)N[C@@H](CNc2ncc3ccc(C(=O)OC)cc3n2)C(=O)N[C@@H](CC(C)C)C(=O)N2C[C@H](O)C[C@H]2C(=O)N[C@@H](Cc2c[nH]c3ccccc23)C(=O)N[C@H]2CCNC(=O)Cn3cc(c4ccccc43)C[C@H](NC2=O)C(=O)N1C` [Example 1016] ({CH2CO}-Y[NMeA]NP[Dap](X1)L[Hyp]W[Dab][Trp(1-CH2CO)][NMeNle][NMeNle]LCG-NH2; lactam 9-10; thioether N-14) stands 120 nM.
Under `CCCC[C@H]1C(=O)N(C)[C@@H](CCCC)C(=O)N[C@@H](CC(C)C)C(=O)N[C@H](C(=O)NCC(N)=O)CSCC(=O)N[C@@H](Cc2ccc(O)cc2)C(=O)N(C)[C@@H](C)C(=O)N[C@@H](CC(N)=O)C(=O)N2CCC[C@H]2C(=O)N[C@@H](CNC(=O)OCC2c3ccccc3-c3ccccc32)C(=O)N[C@@H](CC(C)C)C(=O)N2C[C@H](O)C[C@H]2C(=O)N[C@@H](Cc2c[nH]c3ccccc23)C(=O)N[C@H]2CCNC(=O)Cn3cc(c4ccccc43)C[C@H](NC2=O)C(=O)N1C` [Example 1004] ({CH2CO}-Y[NMeA]NP[Dap](Fmoc)L[Hyp]W[Dab][Trp(1-CH2CO)][NMeNle][NMeNle]LCG-NH2; lactam 9-10; thioether N-14) stands 16 nM; under `CCCCCCCC/C=C\CCCCCCCC(=O)NC[C@@H]1NC(=O)[C@@H]2CCCN2C(=O)[C@H](CC(N)=O)NC(=O)[C@H](C)N(C)C(=O)[C@H](Cc2ccc(O)cc2)NC(=O)CSC[C@@H](C(=O)NCC(N)=O)NC(=O)[C@H](CC(C)C)NC(=O)[C@H](CCCC)N(C)C(=O)[C@H](CCCC)N(C)C(=O)[C@@H]2Cc3cn(c4ccccc34)CC(=O)NCC[C@H](NC(=O)[C@H](Cc3c[nH]c4ccccc34)NC(=O)[C@@H]3C[C@@H](O)CN3C(=O)[C@H](CC(C)C)NC1=O)C(=O)N2` [Example 1003] ({CH2CO}-Y[NMeA]NP[Dap](Oleoyl)L[Hyp]W[Dab][Trp(1-CH2CO)][NMeNle][NMeNle]LCG-NH2; lactam 9-10; thioether N-14), above 10000 nM.
